Test results reported in publication PMC7213754 (Clinical cancer research : an official journal of the …, 2009).
Where “and” joins values, the source holds several entries; their conditions need not be identical. Equal entries are not always repeated. Entries after “also recorded” stand apart in the source; their conditions may differ.

Columns and labels:
[1] = cited from earlier work
[2] = Tariquidar pharmacokinetics in patients; type: in vivo, human; settings: for concentration at 24 h / concentration at 48 h: intravenous, mean plasma concentration
[3] = Vinorelbine pharmacokinetics in patients, alone and with tariquidar; type: in vivo, human; settings: for effect of tariquidar on vinorelbine pharmacokinetics: tariquidar 150 mg before vinorelbine
Pgp [4] = molecular target: T1, Pgp (Homo sapiens, UniProt P08183); settings: 150 mg tariquidar; cited from earlier work
T1 sequence (P08183 whole entry): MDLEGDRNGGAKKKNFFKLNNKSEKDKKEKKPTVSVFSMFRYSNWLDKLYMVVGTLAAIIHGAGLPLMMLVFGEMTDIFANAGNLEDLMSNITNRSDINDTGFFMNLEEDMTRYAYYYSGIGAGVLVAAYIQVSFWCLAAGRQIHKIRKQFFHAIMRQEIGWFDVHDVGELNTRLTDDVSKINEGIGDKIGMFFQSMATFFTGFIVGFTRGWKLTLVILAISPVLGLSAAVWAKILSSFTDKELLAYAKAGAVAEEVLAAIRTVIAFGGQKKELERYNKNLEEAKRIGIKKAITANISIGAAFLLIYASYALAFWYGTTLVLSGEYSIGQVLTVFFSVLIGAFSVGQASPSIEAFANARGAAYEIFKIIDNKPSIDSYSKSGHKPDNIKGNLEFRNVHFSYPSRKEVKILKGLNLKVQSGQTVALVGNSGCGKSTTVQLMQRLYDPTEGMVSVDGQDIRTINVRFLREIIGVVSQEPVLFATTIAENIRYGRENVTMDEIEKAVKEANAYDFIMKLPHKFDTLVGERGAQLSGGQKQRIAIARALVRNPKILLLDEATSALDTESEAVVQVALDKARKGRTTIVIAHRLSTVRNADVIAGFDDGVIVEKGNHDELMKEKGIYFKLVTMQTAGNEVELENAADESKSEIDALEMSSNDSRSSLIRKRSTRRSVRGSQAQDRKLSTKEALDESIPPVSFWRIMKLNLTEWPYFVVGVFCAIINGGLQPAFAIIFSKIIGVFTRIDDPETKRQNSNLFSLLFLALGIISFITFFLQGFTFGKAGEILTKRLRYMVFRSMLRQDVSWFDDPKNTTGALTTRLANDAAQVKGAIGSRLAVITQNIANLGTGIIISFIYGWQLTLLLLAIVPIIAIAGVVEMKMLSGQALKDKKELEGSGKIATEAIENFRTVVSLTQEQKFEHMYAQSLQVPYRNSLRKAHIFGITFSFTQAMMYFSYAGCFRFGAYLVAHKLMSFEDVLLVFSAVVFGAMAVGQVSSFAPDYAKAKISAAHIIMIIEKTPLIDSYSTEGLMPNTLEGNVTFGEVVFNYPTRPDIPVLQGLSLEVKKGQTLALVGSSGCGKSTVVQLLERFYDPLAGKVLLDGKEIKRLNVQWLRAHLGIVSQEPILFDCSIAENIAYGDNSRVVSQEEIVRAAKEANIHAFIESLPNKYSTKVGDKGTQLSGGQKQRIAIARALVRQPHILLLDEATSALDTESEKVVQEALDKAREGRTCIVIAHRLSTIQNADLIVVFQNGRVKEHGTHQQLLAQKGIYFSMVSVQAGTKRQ

[5] = system: multidrug-resistant human tumor cell lines; settings: in vitro; cited from earlier work
Pgp [6] = molecular target: T1, Pgp; experiment: 99mTc-sestamibi scanning at baseline and after tariquidar; type: in vivo
Pgp [7] = settings: cited from earlier work
Pgp [8] = molecular target: T1, Pgp; experiment: Rhodamine efflux from circulating CD56+ cells of patients
[9] = cycle 2, 150 mg i.v. over 30 min, individual patients
[10] = vinorelbine after tariquidar (post), individual patients
[11] = vinorelbine after tariquidar, eight patients
[12] = vinorelbine alone (pre), individual patients
[13] = vinorelbine alone, eight patients

## O[C@@H](COc1cccc2ncccc12)CN1CCN([C@@H]2c3ccccc3[C@@H]3[C@H](c4ccccc42)C3(F)F)CC1 [zosuquidar]
[1]; phase I study
  effect of zosuquidar on vinorelbine clearance: may inhibit vinorelbine clearance to a modest degree

## COc1cc2c(cc1OC)CN(CCc1ccc(NC(=O)c3cc(OC)c(OC)cc3NC(=O)c3cnc4ccccc4c3)cc1)CC2 [tariquidar]
[2]; 150 mg tariquidar
  difference in drug exposure between 2 patients: > 7 fold
[2]; [9]
  Clearance: 170 mL/min and 312 mL/min and 559 mL/min and 309 mL/min and 249 mL/min and 302 mL/min and 444 mL/min and 784 mL/min and 221 mL/min and 269 mL/min and 623 mL/min and 166 mL/min and 83 mL/min and 129 mL/min and 111 mL/min and 137 mL/min and 108 mL/min and 191 mL/min
  Cmax: 1,551 ng/mL and 1,317 ng/mL and 963 ng/mL and 1,362 ng/mL and 1,102 ng/mL and 582 ng/mL and 1,168 ng/mL and 516 ng/mL and 912 ng/mL and 911 ng/mL and 622 ng/mL and 5,793 ng/mL and 3,632 ng/mL and 1,266 ng/mL and 6,113 ng/mL and 4,628 ng/mL and 2,207 ng/mL and 1,008 ng/mL
  Half-life: 27.2 h and 33.2 h and 17.5 h and 25.5 h and 27.6 h and 43.8 h and 15.7 h and 14.2 h and 42.2 h and 23.8 h and 19.2 h and 32.9 h and 63.1 h and 44.4 h and 45.0 h and 50.6 h and 35.8 h
  Vdss: 136 L and 343 L and 248 L and 206 L and 199 L and 661 L and 142 L and 348 L and 439 L and 553 L and 604 L and 82.3 L and 85.1 L and 447 L and 274 L and 234 L and 317 L and 247 L
[2]; human, plasma, 150 mg, cycle 1
  concentration at 24 h: 119 ng/mL
  concentration at 48 h: 79.4 ng/mL
[2]; human, plasma, 150 mg, cycle 2
  concentration at 24 h: 121 ng/mL
  concentration at 48 h: 69.5 ng/mL
[2]; human, plasma, iv, 150 mg, Clearance, median, cycle 2, 150 mg i.v. over 30 min, 18 patients
  Clearance: 235 mL/min
[2]; human, plasma, iv, 150 mg, Cmax, median, cycle 2, 150 mg i.v. over 30 min, 18 patients
  Cmax: 1220 ng/mL
[2]; human, plasma, iv, 150 mg, Half-life, median, cycle 2, 150 mg i.v. over 30 min, 18 patients
  Half-life: 33 h
[2]; human, plasma, iv, 150 mg, Vdss, median, cycle 2, 150 mg i.v. over 30 min, 18 patients
  Vd: 261 L
[2]; human, plasma, iv, 150 mg, mean (±SD) clearance, 150 mg i.v.
  Clearance: 287 ± 196 mL/min
[2]; human, plasma, iv, 150 mg, mean (±SD) terminal half-life, 150 mg i.v.
  Half-life: 33.6 ± 13.5 h
In vivo
  tolerability: well-tolerated
[3]
  effect of tariquidar on vinorelbine pharmacokinetics: no apparent effect of tariquidar on the disposition of vinorelbine; also recorded: did not affect the pharmacokinetics of vinorelbine
[3]; listed as Tariquidar
  effect of tariquidar on vinorelbine pharmacokinetics: no effects on vinorelbine pharmacokinetics
Pgp [4]
  mean change of 99mTc-sestamibi accumulation and retention in the liver: +128%
[5]
  duration of action after removal of drug from the culture medium: at least 22 hours
Pgp [6]; 150-mg dose
  effect on liver 99mTc-sestamibi clearance: reduced liver 99mTc-sestamibi clearance
Pgp [6]; baseline versus after tariquidar, all study patients
  difference in mean 99mTc-sestamibi AUC in heart, lungs and liver: Large differences were noted in Pgp-expressing liver but not in the heart nor in the lungs
Pgp [7]
  mode of inhibition of Pgp transport: noncompetitive
  transport substrate of Pgp: not a transport substrate of Pgp
Pgp [8]; 8, 24 and 48 h after 150 mg i.v.
  Pgp block by i.v. tariquidar compared with exogenous PSC833: as effective in blocking Pgp as an excess of PSC833 added exogenously

## C/C=C/C[C@@H](C)C(=O)[C@H]1C(=O)N[C@@H](C(C)C)C(=O)N(C)CC(=O)N(C)[C@@H](CC(C)C)C(=O)N[C@@H](C(C)C)C(=O)N(C)[C@@H](CC(C)C)C(=O)N[C@@H](C)C(=O)N[C@H](C)C(=O)N(C)[C@@H](CC(C)C)C(=O)N(C)[C@@H](CC(C)C)C(=O)N(C)[C@@H](C(C)C)C(=O)N1C [PSC833, valspodar]
Pgp [8]; added exogenously to blood sample
  rhodamine efflux from CD56+ cells with exogenously added inhibitor: completely blocked

## CCC1=C[C@@H]2CN(C1)Cc1c([nH]c3ccccc13)[C@@](C(=O)OC)(c1cc3c(cc1OC)N(C)[C@H]1[C@@](O)(C(=O)OC)[C@H](OC(C)=O)[C@]4(CC)C=CCN5CC[C@]31[C@@H]54)C2 [vinorelbine]
[2]; human, in vivo
  effect of vinorelbine on tariquidar pharmacokinetics: no effect on tariquidar pharmacokinetics
Days 1 and 8 every 21 d with tariquidar 150 mg, without filgrastim
  maximum tolerated dose of vinorelbine in the combination: 20 mg/m^2
[3]; [10]
  Clearance Post: 518 mL/min/m^2 and 536 mL/min/m^2 and 555 mL/min/m^2 and 1,097 mL/min/m^2 and 589 mL/min/m^2 and 617 mL/min/m^2 and 477 mL/min/m^2 and 462 mL/min/m^2
  t1/2 Post: 23 h and 51 h and 21 h and 43 h and 36 h and 58 h
[3]; [11]
  Clearance Post, median and range: 546 mL/min/m^2 and 462-1,097 mL/min/m^2
  t1/2 Post, median and range: 21 to 58 h
[3]; vinorelbine alone (pre), i.v. bolus 20 or 22.5 mg/m^2, individual patients
  AUC0-∞ Pre: 844 ng·h/mL and 635 ng·h/mL and 511 ng·h/mL and 838 ng·h/mL and 603 ng·h/mL and 758 ng·h/mL and 756 ng·h/mL
[3]; [12]
  Clearance Pre: 600 mL/min/m^2 and 444 mL/min/m^2 and 591 mL/min/m^2 and 652 mL/min/m^2 and 398 mL/min/m^2 and 553 mL/min/m^2 and 495 mL/min/m^2 and 496 mL/min/m^2
  t1/2 Pre: 22 h and 19 h and 28 h and 48 h and 21 h and 37 h and 36 h
[3]; [13]
  AUC0-∞ Pre, median and range: 511 to 844 ng·h/mL
  Clearance Pre, median and range: 524 mL/min/m^2 and 398-652 mL/min/m^2
  t1/2 Pre, median and range: 18 to 48 h
[1]; i.v. weekly for 3 weeks every 28 days
  dose of vinorelbine felt to be tolerable with zosuquidar: 22.5 mg/m^2
